pIC50: −log10 of the molar value.
Target: BTK enzyme (recombinant full-length BTK, hBTK) (Homo sapiens (Human), UniProt Q06187)
Test: Btk enzyme activity assay, LANCE TR-FRET
Settings: read-out: BTK binding IC50; 50 pM hBTK, 2 μM biotin-A5-peptide, 25 μM ATP; 60 minute compound & enzyme incubation
Experimental: Also BTK enzymatic activity was determined with the LANCE (Lanthanide Chelate Excite) TR-FRET (Time-resolved fluorescence resonance energy transfer) assay. […] Phosphorylation reactions were allowed to proceed for 120 minutes. […] After 60 minutes incubation with detection reagents, reaction plates were read on a PerkinElmer EnVision plate reader using standard TR-FRET protocol. Briefly, excitation of donor molecules (Eu-chelate:anti-phospho-antibody) with a laser light source at 337 nm produces energy that can be transferred to Dylight-650 acceptor molecules if this donor:acceptor pair is within close proximity. Fluorescence intensity at both 665 nm (acceptor) and 615 nm (donor) are measured and a TR-FRET ratio calculated for each well (acceptor intensity/donor intensity).
Btk Enzyme Activity Assay Method
BTK enzymatic activity was determined with the LANCE (Lanthanide Chelate Excite) TR-FRET (Time-resolved fluorescence resonance energy transfer) assay. […] Phosphorylation reactions were allowed to proceed for 120 minutes. […] After 60 minutes incubation with detection reagents, reaction plates were read on a PerkinElmer EnVision plate reader using standard TR-FRET protocol. Briefly, excitation of donor molecules (Eu-chelate:anti-phospho-antibody) with a laser light source at 337 nm produces energy that can be transferred to Dylight-650 acceptor molecules if this donor:acceptor pair is within close proximity. Fluorescence intensity at both 665 nm (acceptor) and 615 nm (donor) are measured and a TR-FRET ratio calculated for each well (acceptor intensity/donor intensity).

Sequence of BTK enzyme (recombinant full-length BTK, hBTK) (Q06187 whole entry): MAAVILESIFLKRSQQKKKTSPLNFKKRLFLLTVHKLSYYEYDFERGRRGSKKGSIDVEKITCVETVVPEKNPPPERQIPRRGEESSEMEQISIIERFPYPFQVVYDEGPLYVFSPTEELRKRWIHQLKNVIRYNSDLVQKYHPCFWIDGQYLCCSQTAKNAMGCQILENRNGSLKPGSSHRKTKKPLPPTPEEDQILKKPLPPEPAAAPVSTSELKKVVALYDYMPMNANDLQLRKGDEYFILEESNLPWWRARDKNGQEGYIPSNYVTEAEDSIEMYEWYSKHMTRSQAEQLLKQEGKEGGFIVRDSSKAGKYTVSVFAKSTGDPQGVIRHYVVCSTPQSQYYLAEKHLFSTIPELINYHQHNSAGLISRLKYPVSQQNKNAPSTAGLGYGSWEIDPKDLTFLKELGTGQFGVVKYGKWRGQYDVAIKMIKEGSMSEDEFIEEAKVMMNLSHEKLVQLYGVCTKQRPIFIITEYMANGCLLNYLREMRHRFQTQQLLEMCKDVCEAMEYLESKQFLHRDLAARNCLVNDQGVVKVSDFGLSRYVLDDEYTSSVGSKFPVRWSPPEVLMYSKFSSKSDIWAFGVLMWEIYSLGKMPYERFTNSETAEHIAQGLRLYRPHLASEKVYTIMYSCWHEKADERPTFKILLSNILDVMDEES

pIC50 | Structure (SMILES)
8.66 | CC1(C(=O)N2CCO[C@@H](c3nn(-c4ccc(C(=O)Nc5cc(C(F)(F)F)ccn5)cc4)c4c(N)nccc34)C2)COC1 [Example 1, (R)-4-(7-amino-3-(4-(3-methyloxetane-3-carbonyl)morpholin-2-yl)-1H-pyrazolo[3,4-c]pyridin-1-yl)-N-(4-(trifluoromethyl)pyridin-2-yl)benzamide]
8.54 | CC(=O)N1CCO[C@@H](c2nn(-c3ccc(C(=O)Nc4cc(C(F)(F)F)ccn4)cc3)c3c(N)nccc23)C1 [Example 2, 4-{3-[(2R)-4-acetylmorpholin-2-yl]-7-amino-1H-pyrazolo[3,4-c]pyridin-1-yl}-N-[4-(trifluoromethyl)pyridin-2-yl] benzamide]
8.74 | CCC(=O)N1CCO[C@@H](c2nn(-c3ccc(C(=O)Nc4cc(C(F)(F)F)ccn4)cc3)c3c(N)nccc23)C1 [Example 3, 4-{7-amino-3-[(2R)-4-propanoylmorpholin-2-yl]-1H-pyrazolo[3,4-c]pyridin-1-yl}-N-[4-(trifluoromethyl)pyridin-2-yl] benzamide]
7.33 | COCC(=O)Nc1nccc2c([C@H]3CN(C(=O)COC)CCO3)nn(-c3ccc(C(=O)Nc4cc(C(F)(F)F)ccn4)cc3)c12 [Example 4, 4-{7-[(methoxyacetyl)amino]-3-[(2R)-4-(methoxyacetyl)morpholin-2-yl]-1H-pyrazolo[3,4-c]pyridin-1-yl}-N-[4-(trifluoromethyl)pyridin-2-yl]benzamide]
8.43 | COCC(=O)N1CCO[C@@H](c2nn(-c3ccc(C(=O)Nc4cc(C(F)(F)F)ccn4)cc3)c3c(N)nccc23)C1 [Example 5, 4-{7-amino-3-[(2R)-4-(methoxyacetyl)morpholin-2-yl]-1H-pyrazolo[3,4-c]pyridin-1-yl}-N-[4-(trifluoromethyl)pyridin-2-yl]benzamide]
7.54 | COc1ccnc(NC(=O)c2ccc(-n3nc([C@H]4CN(C(C)=O)CCO4)c4ccnc(N)c43)cc2)c1 [Example 6, 4-{3-[(2R)-4-acetylmorpholin-2-yl]-7-amino-1H-pyrazolo[3,4-c]pyridin-1-yl}-N-(4-methoxypyridin-2-yl)benzamide]
7.60 | COCC(=O)N1CCO[C@@H](c2nn(-c3ccc(C(=O)Nc4cc(OC)ccn4)cc3)c3c(N)nccc23)C1 [Example 7, 4-{7-amino-3-[(2R)-4-(methoxyacetyl)morpholin-2-yl]-1H-pyrazolo[3,4-c]pyridin-1-yl}-N-(4-methoxypyridin-2-yl)benzamide]
7.38 | COc1ccnc(NC(=O)c2ccc(-n3nc([C@H]4CN(C(=O)C5(C)COC5)CCO4)c4ccnc(N)c43)cc2)c1 [Example 8, 4-(7-amino-3-{(2R)-4-[(3-methyloxetan-3-yl)carbonyl]morpholin-2-yl}-1H-pyrazolo[3,4-c]pyridin-1-yl)-N-(4-methoxypyridin-2-yl)benzamide]
9.33 | CC1(C(=O)N2CCC[C@@H](c3nn(-c4ccc(C(=O)Nc5cc(C(F)(F)F)ccn5)cc4)c4c(N)nccc34)C2)COC1 [Example 9, (R)-4-(7-amino-3-(1-(3-methyloxetane-3-carbonyl)piperidin-3-yl)-1H-pyrazolo[3,4-c]pyridin-1-yl)-N-(4-(trifluoromethyl)pyridin-2-yl)benzamide]
9.15 | Cc1n[nH]cc1C(=O)N1CCC[C@@H](c2nn(-c3ccc(C(=O)Nc4cc(C(F)(F)F)ccn4)cc3)c3c(N)nccc23)C1 [Example 10, 4-(7-amino-3-{(3R)-1-[(3-methyl-1H-pyrazol-4-yl)carbonyl]piperidin-3-yl}-1H-pyrazolo[3,4-c]pyridin-1-yl)-N-[4-(trifluoromethyl)pyridin-2-yl]benzamide]
9.24 | CCC(=O)N1CCC[C@@H](c2nn(-c3ccc(C(=O)Nc4cc(C(F)(F)F)ccn4)cc3)c3c(N)nccc23)C1 [Example 11, 4-{7-amino-3-[(3R)-1-propanoylpiperidin-3-yl]-1H-pyrazolo[3,4-c]pyridin-1-yl}-N-[4-(trifluoromethyl)pyridin-2-yl]benzamide]
